Reference: the supplement of paper PMC10307832

Tests used:
Experiment in all cases: relative viability (nuclei count vs DMSO), 5 days (fraction); higher = more cells survive
[1] = system: A-427
Procedure, shortened: (§1)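 Relative viability divides the nuclei count in treated wells by that in vehicle wells. Lung cancer cell lines were seeded in 1536-well plates, dosed by pin tool the next day, and fixed and stained after 5 days in one step with final 0.05% Triton X-100, 1% formaldehyde and 1 ug/ml Hoechst. Dosing was a single drug or a fixed anchor-drug dose plus five library-drug doses (not always all listed) in √10 steps, and values are medians of duplicate plates imaged at 4×.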

[2] = system: BEN
Procedure, shortened: as §1

[3] = system: CAL-12T
Procedure, shortened: as §1

[4] = system: COR-L 105
Procedure, shortened: as §1

[5] = system: ChaGo-K-1
Procedure, shortened: as §1

[6] = system: EPLC-272H
Procedure, shortened: as §1

[7] = system: HOP-62
Procedure, shortened: as §1

[8] = system: LCLC-103H
Procedure, shortened: as §1

[9] = system: LU99A
Procedure, shortened: as §1

[10] = system: LXF-289
Procedure, shortened: as §1

[11] = system: NCI-H1395
Procedure, shortened: as §1

[12] = system: NCI-H1650
Procedure, shortened: as §1

[13] = system: NCI-H1666
Procedure, shortened: as §1

[14] = system: NCI-H1793
Procedure, shortened: as §1

[15] = system: NCI-H1975
Procedure, shortened: as §1

[16] = system: NCI-H1993
Procedure, shortened: as §1

[17] = system: NCI-H2009
Procedure, shortened: as §1

[18] = system: NCI-H2342
Procedure, shortened: as §1

[19] = system: NCI-H2347
Procedure, shortened: as §1

[20] = system: NCI-H358
Procedure, shortened: as §1

[21] = system: NCI-H441
Procedure, shortened: as §1

[22] = system: NCI-H460
Procedure, shortened: as §1

[23] = system: NCI-H650
Procedure, shortened: as §1

[24] = system: NCI-H727
Procedure, shortened: as §1

[25] = system: SK-MES-1
Procedure, shortened: as §1

Q: Which results are given for `Nc1cccc2c1CN(C1CCC(=O)NC1=O)C2=O` (stereo unspecified) [Lenalidomide] + Cc1nc(Nc2ncc(C(=O)Nc3c(C)cccc3Cl)s2)cc(N2CCN(CCO)CC2)n1 [Dasatinib] (partner 0.075 µM)?
A: relative viability ([1]; first compound 0.253 µM): 0.58; relative viability ([1]; first compound 0.8 µM): 0.851; relative viability ([1]; first compound 2.53 µM): 0.752; relative viability ([1]; first compound 8 µM): 0.644; relative viability ([2]; first compound 0.253 µM): 0.385; relative viability ([2]; first compound 0.8 µM): 0.258; relative viability ([2]; first compound 2.53 µM): 0.293; relative viability ([2]; first compound 8 µM): 0.241; relative viability ([3]; first compound 0.253 µM): 0.262; relative viability ([3]; first compound 0.8 µM): 0.345; relative viability ([3]; first compound 2.53 µM): 0.397; relative viability ([3]; first compound 8 µM): 0.368; relative viability ([4]; first compound 0.253 µM): 0.433; relative viability ([4]; first compound 0.8 µM): 0.331; relative viability ([4]; first compound 2.53 µM): 0.427; relative viability ([4]; first compound 8 µM): 0.371; relative viability ([5]; first compound 0.253 µM): 0.565; relative viability ([5]; first compound 0.8 µM): 0.495; relative viability ([5]; first compound 2.53 µM): 0.677; relative viability ([5]; first compound 8 µM): 0.595; relative viability ([6]; first compound 0.253 µM): 0.379; relative viability ([6]; first compound 0.8 µM): 0.358; relative viability ([6]; first compound 2.53 µM): 0.321; relative viability ([6]; first compound 8 µM): 0.235; relative viability ([7]; first compound 0.253 µM): 0.67; relative viability ([7]; first compound 0.8 µM): 0.615; relative viability ([7]; first compound 2.53 µM): 0.79; relative viability ([7]; first compound 8 µM): 0.583; relative viability ([8]; first compound 0.253 µM): 0.442; relative viability ([8]; first compound 0.8 µM): 0.325; relative viability ([8]; first compound 2.53 µM): 0.453; relative viability ([8]; first compound 8 µM): 0.296; relative viability ([9]; first compound 0.253 µM): 0.473; relative viability ([9]; first compound 0.8 µM): 0.471; relative viability ([9]; first compound 2.53 µM): 0.54; relative viability ([9]; first compound 8 µM): 0.308; relative viability ([10]; first compound 0.253 µM): 0.235; relative viability ([10]; first compound 0.8 µM): 0.347; relative viability ([10]; first compound 2.53 µM): 0.234; relative viability ([10]; first compound 8 µM): 0.213; relative viability ([11]; first compound 0.253 µM): 0.428; relative viability ([11]; first compound 0.8 µM): 0.383; relative viability ([11]; first compound 2.53 µM): 0.392; relative viability ([11]; first compound 8 µM): 0.367; relative viability ([12]; first compound 0.8 µM): 0.241; relative viability ([12]; first compound 2.53 µM): 0.316; relative viability ([12]; first compound 8 µM): 0.303; relative viability ([13]; first compound 0.253 µM): 0.858; relative viability ([13]; first compound 2.53 µM): 0.849; relative viability ([13]; first compound 8 µM): 0.783; relative viability ([14]; first compound 0.253 µM): 0.349; relative viability ([14]; first compound 2.53 µM): 0.412; relative viability ([14]; first compound 8 µM): 0.212; relative viability ([15]; first compound 0.253 µM): 0.406; relative viability ([15]; first compound 0.8 µM): 0.287; relative viability ([15]; first compound 2.53 µM): 0.486; relative viability ([15]; first compound 8 µM): 0.366; relative viability ([16]; first compound 0.253 µM): 0.498; relative viability ([16]; first compound 0.8 µM): 0.583; relative viability ([16]; first compound 2.53 µM): 0.609; relative viability ([16]; first compound 8 µM): 0.443; relative viability ([17]; first compound 0.253 µM): 0.326; relative viability ([17]; first compound 0.8 µM): 0.299; relative viability ([17]; first compound 2.53 µM): 0.351; relative viability ([17]; first compound 8 µM): 0.284; relative viability ([18]; first compound 0.253 µM): 0.312; relative viability ([18]; first compound 0.8 µM): 0.305; relative viability ([18]; first compound 2.53 µM): 0.322; relative viability ([18]; first compound 8 µM): 0.3; relative viability ([19]; first compound 0.253 µM): 0.264; relative viability ([19]; first compound 0.8 µM): 0.365; relative viability ([19]; first compound 2.53 µM): 0.286; relative viability ([19]; first compound 8 µM): 0.214; relative viability ([20]; first compound 0.253 µM): 0.196; relative viability ([20]; first compound 0.8 µM): 0.235; relative viability ([20]; first compound 2.53 µM): 0.19; relative viability ([20]; first compound 8 µM): 0.165; relative viability ([21]; first compound 0.253 µM): 0.67; relative viability ([21]; first compound 0.8 µM): 0.518; relative viability ([21]; first compound 2.53 µM): 0.648; relative viability ([21]; first compound 8 µM): 0.493; relative viability ([22]; first compound 0.253 µM): 0.597; relative viability ([22]; first compound 0.8 µM): 0.473; relative viability ([22]; first compound 2.53 µM): 0.673; relative viability ([22]; first compound 8 µM): 0.308; relative viability ([23]; first compound 0.253 µM): 0.459; relative viability ([23]; first compound 2.53 µM): 0.474; relative viability ([23]; first compound 8 µM): 0.355; relative viability ([24]; first compound 0.253 µM): 0.357; relative viability ([24]; first compound 0.8 µM): 0.326; relative viability ([24]; first compound 2.53 µM): 0.335; relative viability ([24]; first compound 8 µM): 0.384; relative viability ([25]; first compound 0.253 µM): 0.421; relative viability ([25]; first compound 0.8 µM): 0.422; relative viability ([25]; first compound 2.53 µM): 0.499; relative viability ([25]; first compound 8 µM): 0.413
